Results published in patent US7737155B2, “Nitrogen-containing heterocyclic compounds and methods of use thereof” (Schering Corporation, priority 2005, dated 2010).

target: recombinant human nicotinic acid receptor (NAR) (Homo sapiens, UniProt Q8TDS4); assay: Nicotinic Acid Receptor Assay: inhibition of forskolin-stimulated cAMP accumulation in CHO cells (MesoScale Discovery cAMP kit); type: cell-based; details: CHO cells expressing recombinant human NAR; forskolin-stimulated cAMP; read-out: NA EC50 camp
Method: The nicotinic acid receptor agonist activity of the inventive compounds was determined by following the inhibition of forskolin-stimulated cAMP accumulation in cells using the MesoScale Discovery cAMP detection kit following the manufacture's protocol. Briefly, Chinese Hamster Ovary (CHO) cells expressing recombinant human nicotinic acid receptor (NAR) were harvested enzymatically, washed 1× in phosphate buffered saline (PBS) and resuspended in PBS containing 0.5 mM IBMX at 3×10^6 cells/mL. Ten μL of cell suspension was added to each well of a 384-well plate which contained 10 μL of test compounds. Test compounds were diluted with PBS containing 6 μM of forskolin. Plates were incubated for 30 minutes at room temperature after the addition of cells. Lysis buffer containing cAMP-Tag was added to each well (10 μL/well) as per the manufacturer's protocol. Plates were then incubated from 45 minutes to overnight. Prior to reading, 10 μL of read buffer was added to each well, and the plate was read in a Sector 6000 plate imager. The signal was converted to cAMP concentration using a standard curve run on each plate.

recombinant human nicotinic acid receptor (NAR), sequence (Q8TDS4 whole entry): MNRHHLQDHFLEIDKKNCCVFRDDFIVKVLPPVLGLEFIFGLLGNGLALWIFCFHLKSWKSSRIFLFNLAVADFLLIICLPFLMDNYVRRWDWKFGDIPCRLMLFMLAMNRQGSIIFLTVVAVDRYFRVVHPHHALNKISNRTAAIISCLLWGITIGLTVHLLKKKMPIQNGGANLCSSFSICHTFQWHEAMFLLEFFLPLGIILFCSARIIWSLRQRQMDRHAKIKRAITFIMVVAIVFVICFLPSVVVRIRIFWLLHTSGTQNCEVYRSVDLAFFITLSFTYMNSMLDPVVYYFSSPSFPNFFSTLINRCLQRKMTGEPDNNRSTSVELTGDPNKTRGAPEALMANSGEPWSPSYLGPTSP

EC50 [nM]	Compound
100 to 1000	CCc1cc(=O)oc2nc(OCC(N)=O)[nH]c(=O)c12 [Compound 582]
0.001 to 100	CC(C)(C)CCCc1cc(=O)oc2[nH]c(=O)[nH]c(=O)c12 [Compound 262]
100 to 1000	CCc1cc(=O)oc2nc(OCc3cc(C)nn3CC)[nH]c(=O)c12 [Compound 678]
100 to 1000	CCc1cc(=O)oc2nc(OCc3cc(-c4ccccc4Cl)no3)[nH]c(=O)c12 [Compound 640]
100 to 1000	CCc1cc(=O)oc2nc(OCC(C)(O)c3ccccc3)[nH]c(=O)c12 (stereo not drawn) [Compound 599]
100 to 1000	CCc1cc(=O)oc2nc(OCc3c(-c4ccccc4)noc3C)[nH]c(=O)c12 [Compound 526]
100 to 1000	O=c1[nH]c(=O)c2c(CC3CCCC(C(F)(F)F)C3)cc(=O)oc2[nH]1 (stereo not drawn) [Compound 213]
0.001 to 100	CCc1cc(=O)oc2nc(OCC#Cc3ccccc3Cl)[nH]c(=O)c12 [Compound 623]
> 1000	O=c1cc(CCCc2cccs2)c2c(=O)[nH]c(=O)n(CC3CC3)c2o1 [Compound 255]
> 1000	Cc1cccc(COc2nc3oc(=O)cc(Cc4ccccc4)c3c(=O)[nH]2)n1 [Compound 609]
> 1000	O=c1[nH]c(=O)c2c(C3CCCC3)cc(=O)oc2[nH]1 [Compound 227]
> 1000	CC(C)CCc1cc(=O)oc2c1c(=O)[nH]c(=O)n2CC1CC1 [Compound 259]
100 to 1000	CCc1cc(=O)oc2nc(OCc3ccc(Cl)cc3OC)[nH]c(=O)c12 [Compound 515]
> 1000	CCc1cc(=O)oc2nc(OCCSc3ccc(Cl)cc3)[nH]c(=O)c12 [Compound 587]
100 to 1000	CCc1cc(=O)oc2nc(OCc3cc(C)n(C)n3)[nH]c(=O)c12 [Compound 530]
100 to 1000	CCc1cc(=O)oc2nc(OCCCS(C)(=O)=O)[nH]c(=O)c12 [Compound 650]
> 1000	O=c1[nH]c(=O)c2c(CCC3CCC3)c(-c3ccc(C(F)(F)F)cc3)c(=O)oc2[nH]1 [Compound 701]
100 to 1000	CCc1cc(=O)oc2nc(OCc3nn(-c4ccccc4)nc3C)[nH]c(=O)c12 [Compound 535]
0.001 to 100	COCC#CCOc1nc2oc(=O)cc(Cc3cccc(F)c3)c2c(=O)[nH]1 [Compound 684]
100 to 1000	CCC(CC)CCc1cc(=O)oc2[nH]c(=O)[nH]c(=O)c12 [Compound 269]
100 to 1000	CCOc1nc2oc(=O)cc(CCC(C)C)c2c(=O)[nH]1 [Compound 686]
100 to 1000	CCc1cc(=O)oc2nc(OCc3cccc(-c4cccnc4)c3)[nH]c(=O)c12 [Compound 563]
> 1000	CCc1cc(=O)oc2nc(OCc3ccccc3-c3cccc(Cl)c3)[nH]c(=O)c12 [Compound 554]
> 1000	O=c1[nH]c(=O)c2c3c(c(=O)oc2[nH]1)CCCCCC3 [Compound 211]
100 to 1000	CCc1noc(C)c1COc1nc2oc(=O)cc(CCC3CCCC3)c2c(=O)[nH]1 [Compound 689]
100 to 1000	CCc1cc(=O)oc2nc(OCc3ccc(-c4ccncc4)cc3F)[nH]c(=O)c12 [Compound 574]

same assay, conditions: NA EC50 camp (nM), CHO cells expressing recombinant human NAR; forskolin-stimulated cAMP

Compound	EC50 [nM]
CCc1cc(=O)oc2nc(OCc3ccc(-c4cncnc4)cc3F)[nH]c(=O)c12 [Compound 575]	100 to 1000

same assay, conditions: NA EC50 camp, inhibition of forskolin-stimulated cAMP accumulation, CHO cells expressing recombinant human NAR

Compound	EC50 [nM]
CC1(CCCc2cc(=O)oc3nc(C(F)F)[nH]c(=O)c23)CC1 [Compound 811]	22
CCCCc1cc(=O)oc2nc(OCC#CC3CC3)[nH]c(=O)c12 [Compound 735]	94
O=c1cc(CCCC2CC2)c2c(=O)[nH]c(C(F)F)nc2o1 [Compound 740]	130
O=c1cc(CCC2CCC2)c2c(=O)[nH]c(C(F)F)nc2o1 [Compound 748]	286

same assay, conditions: inhibition of forskolin-stimulated cAMP accumulation, CHO cells expressing recombinant human NAR; read-out: NA EC50 camp

EC50 [nM]	Compound
49.9	CC(C)(C)CCCc1cc(=O)oc2[nH]c(=O)[nH]c(=O)c12 [Compound 262]
178	O=c1cc(CCCC2CC2)c2c(=O)n(CCF)c(=O)[nH]c2o1 [Compound 804]
> 1000	CCCCc1cc(=O)oc2[nH]c(=O)n(N3CCOCC3)c(=O)c12 [Compound 797]
17.9	O=c1cc(CCCC2CC2)c2c(=O)n(C3CCC3)c(=O)[nH]c2o1 [Compound 784]
531	O=c1nc(OCC(F)F)c2c(CCCC3CC3)cc(=O)oc2[nH]1 [Compound 831]
